The text below walks through data of patent US11427604B2 (Mindset Pharma Inc., priority 2020, dated 2022).

The target in series [1] is human 5-HT2A (h5-HT2A) receptor (Homo sapiens (Human), UniProt P28223). The experiment in a line: FLIPR assay, human 5-HT2A receptor under agonist mode. Type of series: cell-based. The procedure: I. Assessment of the Activated Effect of Compounds of Formula I Targeting on Human 5-HT2A (h5-HT2A) Receptor Under Agonist Mode
1. Culture the cells in cell culture medium (DMEM containing 10% FBS, 1× penicillin-streptomycin 300 μg/ml G418 and 100 μg/ml hygromycin B) at 37° C., 5% (v/v) CO2.
2. One day before the assays, detach the cell using TrypLE™ Express and count cells using cell counter.
3. Seed 20000 cells/well in 30 μl/well culture medium to a 384-well cell plate and incubate the cells overnight at 37° C., 5% (v/v) C02.
4. On the assay day, prepare 2× dye solution following the manual of the FLIPR® Calcium 6 Assay Kit: i. Dilute the dye with assay buffer (20 mM HEPES in 1×HBSS, PH7.4); ii. Add probenecid to the final concentration of 5 mM; iii. Vortex vigorously for 1-2 minutes.
5. Remove medium from cell plate by flicking the cell plate on towel papers.
6. Add 10 μl of assay buffer and 10 μl of 2× dye solution to each well of the cell plate.
7. Put the cell plate on plate shaker, agitate the plate at 600 rpm for 2 minutes. Incubate the plate at 37° C. for 2 hours followed by additional 15-minute incubation at 25° C.
8. Prepare 3× compound in assay buffer: a. Dilute reference compounds to required concentration with DMSO. Add the compounds to a 384-well compound plate; b. Perform serial dilutions; c. Add 10 mM test compounds to the compound plate, perform 3-fold serial dilutions. d. […] Add 20 μl/well assay buffer to the compound plate; f. Mix the plate on plate shaker for 2 mins;
i. The normalized fluorescence reading (RFU) is calculated as shown follow, while Fmax and Fmin stand for maximum and minimum of calcium signal during defined time window: RFU=Fmax−Fmin
ii. Calculate the percentage activation by using following equation: […]
iii. Calculate EC50 by fitting % activation against log of compound concentrations with Hill equation using XLfit.

Another series addresses human 5-HT2A receptor (Homo sapiens (Human), UniProt P28223). The series is described as follows: Radioligand binding assay ([3H]-ketanserin) on human 5-HT2A receptor. The procedure:
i. Prepare the assay buffer following the table below;
ii. Preparation of 8 doses of reference and test compounds starting from 10 mM stock solution as requested by 5-fold serial dilutions with 100%;
iii. […] a. Add 50 μl/well of 0.5% (v/v) PEI to UniFilter-96 GF/B plates. Seal the plates and incubate at 4° C. for 3 hrs; b. After incubation, wash the plates 3 times with ice-cold wash buffer (50 mM Tris, pH7.4);
iv. Preparation of assay plates: a. Dilute cell membrane with assay buffer and add 330 μl/well to 96 round deep well plates to reach a concentration of 20 μg/well; b. Prepare 8 concentrations of reference or exemplary compounds of the application and add 110 μl/well to 96 round deep well plates; c. Dilute [3H]-ketanserin with assay buffer to 5 nM (5× final concentration) and add 110 μl/well to 96 round deep well plates.
v. Centrifuge the plate at 1000 rpm for 30 secs and then agitate at 600 rpm, R.T. for 5 min.
vi. Seal the plates and incubate the plate at 27° C. for 90 min.
vii. Stop the incubation by vacuum filtration onto GF/B filter plates followed by 4 times washing with ice-cold wash buffer (50 mM Tris, pH7.4).
ix. Seal the filter plates and add 40 μl/well of scintillation cocktail.
x. Read the plate by using a Microbeta2 microplate counter.
For reference and exemplary test compounds of the application, the results are expressed as % Inhibition, using the normalization equation: N=100−100×(U−C2)/(C1−C2), where U is the unknown value, C1 is the average of high controls, and C2 is the average of low controls. The IC50 is determined by fitting percentage of inhibition as a function of compound concentrations with Hill equation using XLfit.

Series [2] can be described thus: Mouse liver microsomes stability with NADPH. The procedure:
(§1) The objective of this study was to estimate in vitro metabolic stability of 1-45 in pooled human and male mouse liver microsomes. The concentrations of exemplary compounds in reaction systems were evaluated by LC-MS/MS for estimating the stability in pooled human and male mouse liver microsomes. The in vitro intrinsic clearances of test compounds were determined as well.
(§2) A master solution in the “Incubation Plate” containing phosphate buffer, ultra-pure H2O, MgCl2 solution and liver microsomes was made according to Table --. The mixture was pre-warmed at 37° C. water bath for 5 minutes.
(§3) 40 μL of 10 mM NADPH solution was added to each well. The final concentration of NADPH was 1 mM. The negative control samples were prepared by replacing NADPH with 40 μL of ultra-pure H2O. Samples were prepared in duplicate. Negative controls were prepared in singlet.
(§4) The reaction was started with the addition of 4 μL of 200 μM test compounds or control compounds to each master solution to get the final concentration of 2 μM. This study was performed in duplicate.
(§5) Aliquots of 50 μL were taken from the reaction solution at 0, 15, 30, 45 and 60 minutes. The reaction solutions were stopped by the addition of 4 volumes of cold methanol with IS (100 nM alprazolam, 200 nM imipramine, 200 nM labetalol and 2 μM ketoprofen). Samples were centrifuged at 3,220 g for 40 minutes. Aliquot of 90 μL of the supernatant was mixed with 90 μL of ultra-pure H2O and then was used for LC-MS/MS analysis.
(§6) LC/MS analysis was performed for all samples from this study using a Shimadzu liquid chromatograph separation system equipped with degasser DGU-20A5R; solvent delivery unit LC-30AD; system controller SIL-30AC; column oven CTO-30A; CTC Analytics HTC PAL System. Mass spectrometric analysis was performed using an Triple Quad™ 5500 instrument.
(§7) All calculations were carried out using Microsoft Excel. Peak area ratios of test compound to internal standard (listed in the below table) were determined from extracted ion chromatograms.
(§8) All calculations were carried out using Microsoft Excel. Peak areas were determined from extracted ion chromatograms. The slope value, k, was determined by linear regression of the natural logarithm of the remaining percentage of the parent drug vs. incubation time curve.
(§9) Conversion of the in vitro t1/2 (min) into the in vitro intrinsic clearance (in vitro CLint, in μL/min/mg proteins) was done using the following equation (mean of duplicate determinations):
(§10) [formula] […] Results & Discussion

Series [3] can be described thus: Human liver microsomes stability with NADPH. As to the method:
as §1, §2, §3, §4, §5, §6, §7, §8, §9, §10

Series [4] in a line: Rat liver microsomes stability with NADPH. In general terms: Liver microsomes are a subcellular fraction often used to study metabolism.
The conditions of series [5]: cited from earlier work.

Structures are written as SMILES. Like-named read-outs stand apart in the source and are kept apart here. Some results are limits rather than exact numbers.

Usually EC50 stands for the concentration giving half of the maximal effect. A lower EC50 goes with a more potent agent. One may read the IC50 as the concentration needed to halve the response being measured. A high value points to weaker potency in that assay. Compound `[2H]C([2H])([2H])N(C([2H])([2H])[2H])C([2H])([2H])C([2H])([2H])c1c[nH]c2cccc(OP(=O)(O)O)c12` [Compound I-3, 3-(2-(bis(methyl-d3)amino)ethyl-1,1,2,2-d4)-1H-indol-4-yl dihydrogen phosphate] had an EC50 in series [1] of 1 to 10 µM. Besides, the IC50 on human 5-HT2A receptor was 0.5 to 5 µM.
`[2H]C([2H])([2H])N(C([2H])([2H])[2H])C([2H])([2H])C([2H])([2H])c1c[nH]c2cccc(F)c12` [Compound I-43, 2-(4-fluoro-1H-indol-3-yl)-N,N-bis(methyl-d3)ethan-1-amine-1,1,2,2-d4] displayed an EC50 in series [1] of less than 1 µM. This compound also registered an IC50 on human 5-HT2A receptor of less than 0.5 µM.
Take `[2H]C([2H])([2H])N(C([2H])([2H])[2H])C([2H])([2H])C([2H])([2H])c1c[nH]c2cccc(OC)c12` [Compound I-44, 2-(4-methoxy-1H-indol-3-yl)-N,N-bis(methyl-d3)ethan-1-amine-1,1,2,2-d4]: the EC50 in series [1] is less than 1 µM. In addition, the IC50 on human 5-HT2A receptor was less than 0.5 µM.
A word on the half-life: it is the time needed for the level to fall by half in the phase considered. The low end stands for rapid decline, the high end for slow decline. For orientation: microsomal CLint means the capacity of the preparation to metabolise the compound, expressed as a volume cleared per time. For `CN(C)CCc1c[nH]c2cccc(O)c12` [Psilocin, 4-hydroxy-N,N-dimethyltryptamine, reference compound], the “Remaining Percentage (%) after 60 min” value in series [2] (Mouse, with NADPH, 2 μM) is recorded as 96.89%; in series [3] (Human, with NADPH, 2 μM) it was 70.16%; in series [4] (Rat, with NADPH, 2 μM), 62.68%. Moreover, the half-life at 2 μM in series [2] (male, mouse, microsomes) stood at 2.36 h; in series [3] (human, microsomes), 1.96 h; in series [4] (rat, microsomes), 1.48 h. Further, the microsomal CLint at 2 μM in series [2] (male, mouse, microsomes) was 9.78 µL/min/mg; in series [3] (human, microsomes), 11.8 µL/min/mg; in series [4] (rat, microsomes), 15.6 µL/min/mg.
Consider `CN(C)CCc1c[nH]c2cccc(OP(=O)(O)O)c12` [psilocybin, 4-phosphoryloxy-N,N-dimethyltrypatmine], for which the abstinence rate in series [5] (12 months follow-up) is listed as 67%; in series [5] (six months follow-up), 80%.
